Data: US12150995B2, “IRAK degraders and uses thereof” (Kymera Therapeutics, Inc., priority 2020, dated 2024)

Target: T1, IRAK4 (Homo sapiens, UniProt Q9NWZ3)
T1 construct: endogenous in cells; host or cells: OCI-LY10
T1 sequence (Q9NWZ3 1-460): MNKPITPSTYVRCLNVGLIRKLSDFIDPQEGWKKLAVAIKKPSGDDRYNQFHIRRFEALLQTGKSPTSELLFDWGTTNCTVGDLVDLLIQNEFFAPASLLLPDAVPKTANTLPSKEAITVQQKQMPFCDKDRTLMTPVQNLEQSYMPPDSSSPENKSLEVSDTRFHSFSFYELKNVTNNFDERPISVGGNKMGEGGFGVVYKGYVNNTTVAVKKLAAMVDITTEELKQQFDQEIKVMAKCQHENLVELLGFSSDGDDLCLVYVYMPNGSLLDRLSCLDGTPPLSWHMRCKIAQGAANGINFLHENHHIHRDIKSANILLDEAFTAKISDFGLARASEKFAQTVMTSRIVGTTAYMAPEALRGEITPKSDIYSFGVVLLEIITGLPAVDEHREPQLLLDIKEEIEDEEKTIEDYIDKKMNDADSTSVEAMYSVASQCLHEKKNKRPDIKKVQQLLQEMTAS
Assay: IRAK4 MSD Degradation in OCI-LY10
Assay type: cell-based
Settings: OCI-LY10 cells, Meso Scale Discovery, incubated 4 to 24 hours
Method in brief: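 OCI-LY10 cells (300,000/well) exposed to an 8-point 1:3 series from a top concentration of 1 to 10 μM for 4 to 24 h at 37 °C. IRAK4 remaining in RIPA lysates quantified by MSD sandwich immunoassay; DC50 from a three-parameter logistic fit.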

Row | DC50 [nM] | SMILES
1 | < 10 | Cn1c(=O)n(C2CCC(=O)NC2=O)c2cccc(C3CCN(C[C@H]4CC[C@H](n5cc6cc(NC(=O)c7nc(C(F)(F)F)cs7)ccc6n5)CC4)CC3)c21 (stereo partly drawn) [I-215]
2 | > 200 | Cn1c(=O)n(C2CCC(=O)NC2=O)c2cccc(C3CCN(C(=O)[C@H]4CC[C@H](n5cc6cc(NC(=O)c7cccc(C(F)(F)F)n7)ccc6n5)CC4)CC3)c21 (stereo partly drawn) [I-94, N-[2-[4-[4-[1-(2,6-dioxo-3-piperidyl)-3-methyl-2-oxo-benzimidazol-4-yl]piperidine-1-carbonyl]cyclohexyl]indazol-5-yl]-6-(trifluoromethyl)pyridine-2-carboxamide]
3 | > 200 | CN(C[C@H]1CC[C@H](n2cc3cc(NC(=O)c4cccc(C(F)(F)F)n4)ncc3n2)CC1)C1CCN(c2cccc3c(N4CCC(=O)NC4=O)cncc23)CC1 [I-79]
4 | < 10 | COc1cc2nn([C@H]3CC[C@H](CN4CCC(c5cccc6c5n(C)c(=O)n6C5CCC(=O)NC5=O)CC4)CC3)cc2cc1NC(=O)c1cncc(Cl)c1 (stereo partly drawn) [I-93]
5 | < 10 | Cn1c(=O)n(C2CCC(=O)NC2=O)c2cccc(C3CCN(C[C@H]4CC[C@H](n5cc6cc(NC(=O)c7cccc(C(F)(F)F)n7)c(N7C[C@H]8C[C@@H]7CO8)cc6n5)CC4)CC3)c21 (stereo partly drawn) [I-44]
6 | 10 to 50 | Cc1ccc2c(c1C1CCN(C[C@H]3CC[C@H](n4cc5cc(NC(=O)c6cccc(C(F)(F)F)n6)c(F)cc5n4)CC3)CC1)n(C)c(=O)n2C1CCC(=O)NC1=O (stereo partly drawn) [I-67]
7 | > 200 | CC(C)Nc1c(C(=O)N[C@H]2CC[C@H](CN3CCN(c4cccc5c(N6CCC(=O)NC6=O)cncc45)CC3)CC2)cnc2c1Oc1ccc(C#N)cc1O2 [I-408]
8 | 10 to 50 | Cn1c(=O)n(C2CCC(=O)NC2=O)c2cccc(N3CCN(C[C@H]4CC[C@H](n5cc6cc7nc(-c8cccc(C(F)(F)F)n8)oc(=O)c7cc6n5)CC4)CC3)c21 (stereo partly drawn) [I-406, 3-[3-methyl-2-oxo-4-[4-[[4-[8-oxo-6-[6-(trifluoromethyl)-2-pyridyl]pyrazolo[3,4-g] [3,1]benzoxazin-2-yl]cyclohexyl]methyl]piperazin-1-yl]benzimidazol-1-yl]piperidine-2,6-dione]
9 | < 10 | COc1cc2nn([C@H]3C[C@H](CN(C)C4CCN(c5cccc6c5n(C)c(=O)n6C5CCC(=O)NC5=O)CC4)C3)cc2cc1NC(=O)c1cccc(C(F)(F)F)n1 (stereo partly drawn) [I-31, N-[2-[3-[[[1-[1-(2,6-dioxo-3-piperidyl)-3-methyl-2-oxo-benzimidazol-4-yl]-4-piperidyl]-methyl-amino]methyl]cyclobutyl]-6-methoxy-indazol-5-yl]-6-(trifluoromethyl)pyridine-2-carboxamide]
10 | 10 to 50 | CC(C)Nc1cc(-c2ccc3cc(C#N)cnn23)ncc1C(=O)N[C@H]1CC[C@H](CN2CCN(c3cccc4c(N5CCC(=O)NC5=O)cncc34)CC2)CC1 [I-373]
11 | 10 to 50 | COc1cc2nn([C@H]3CC[C@H](CN4CCN(c5cccc6c(N7CCC(=O)NC7=O)cncc56)CC4)CC3)cc2cc1NC(=O)c1cncc(C#N)c1 [I-259]
12 | < 10 | COc1cc2nn([C@H]3CC[C@H](CN4CCC(c5cccc6c(N7CCC(=O)NC7=O)cncc56)CC4)CC3)cc2cc1NC(=O)c1cccc(C(F)(F)F)n1 [I-97]
13 | < 10 | COc1cc2nn([C@H]3CC[C@H](CN4CC[C@@H](c5cccc6c5n(C)c(=O)n6C5CCC(=O)NC5=O)C4)CC3)cc2cc1NC(=O)c1cccc(C(F)(F)F)n1 (stereo partly drawn) [I-428]
14 | < 10 | COc1cc2nn([C@H]3CC[C@H](CN4CCC(c5c(OC)ccc6c5n(C)c(=O)n6C5CCC(=O)NC5=O)CC4)CC3)cc2cc1NC(=O)c1cncc(Cl)c1 (stereo partly drawn) [I-111]
15 | < 10 | COc1cc2nc([C@H]3CC[C@H](CN4CCC(c5cccc6c5n(C)c(=O)n6C5CCC(=O)NC5=O)CC4)CC3)sc2cc1NC(=O)c1cncc(C#N)c1 (stereo partly drawn) [I-185]
16 | 50 to 100 | COc1cc2nn([C@H]3CC[C@H](CN(C)C4CCN(c5cccc6c(N7CCC(=O)NC7=O)cncc56)CC4)CC3)cc2cc1NC(=O)c1cncc(Cl)c1 [I-117]
17 | 10 to 50 | Cc1cc2nn([C@H]3CC[C@H](CN4CC5CC(C4)N5c4cccc5c4n(C)c(=O)n5C4CCC(=O)NC4=O)CC3)cc2cc1NC(=O)c1cccc(C(F)(F)F)n1 (stereo partly drawn) [I-414]
18 | < 10 | COc1cc2nn([C@H]3CC[C@H](CN4CCC(c5cccc6c5n(C)c(=O)n6C5CCC(=O)NC5=O)CC4)CC3)cc2cc1NC(=O)c1nc(C(F)(F)F)cs1 (stereo partly drawn) [I-175]
19 | < 10 | COc1ccc2c(c1C1CCN(C[C@H]3CC[C@H](n4cc5cc(NC(=O)c6cccc(C(F)(F)F)n6)c(C#N)cc5n4)CC3)CC1)n(C)c(=O)n2C1CCC(=O)NC1=O (stereo partly drawn) [I-205]
20 | < 10 | COc1ccc2c(c1N1CCN(C[C@H]3CC[C@H](NC(=O)c4cnc(-c5ccc6cc(C#N)cnn56)cc4NC(C)C)CC3)CC1)n(C)c(=O)n2C1CCC(=O)NC1=O (stereo partly drawn) [I-395]
21 | 100 to 200 | COc1cc2nn([C@H]3CC[C@H](CN4CC5(CN(Cc6cccc7c6n(C)c(=O)n7C6CCC(=O)NC6=O)C5)C4)CC3)cc2cc1NC(=O)c1cncc(C#N)c1 (stereo partly drawn) [I-244]

Row | DC50 [nM] | SMILES
22 | < 10 | COc1cc2nn([C@H]3CC[C@H](CN4C5CCC4CN(c4cccc6c(N7CCC(=O)NC7=O)cncc46)C5)CC3)cc2cc1NC(=O)c1cccc(C(F)(F)F)n1 [I-219]
23 | 10 to 50 | Cn1c(=O)n(C2CCC(=O)NC2=O)c2cccc(C3CCN(C[C@H]4CC[C@H](n5cc6cc(NC(=O)c7cccc(C(F)(F)F)n7)c(N7C[C@@H]8C[C@H]7CO8)cc6n5)CC4)CC3)c21 (stereo partly drawn) [I-55]
24 | < 10 | CC(C)(O)c1cc2nc([C@H]3CC[C@H](C(=O)N4CCN(CCCNc5cccc6c5C(=O)N(C5CCC(=O)NC5=O)C6=O)CC4)CC3)sc2cc1NC(=O)c1cccc(C(F)(F)F)n1 (stereo partly drawn) [I-493]
25 | 10 to 50 | CC(C)(O)c1cc2nc([C@H]3CC[C@H](CN4CCO[C@@H](CCCNc5cccc6c5C(=O)N(C5CCC(=O)NC5=O)C6=O)C4)CC3)sc2cc1NC(=O)c1cccc(C#N)n1 (stereo partly drawn) [I-438]
26 | 10 to 50 | CCOc1cc2nn([C@H]3CC[C@H](CN4CCN(c5cccc6c5n(C)c(=O)n6C5CCC(=O)NC5=O)CC4)CC3)cc2cc1NC(=O)c1cccc(C(F)(F)F)n1 (stereo partly drawn) [I-294]
27 | 10 to 50 | Cc1cccc(C(=O)Nc2cc3sc([C@H]4CC[C@H](CN(C)CCCCNc5cccc6c5C(=O)N(C5CCC(=O)NC5=O)C6=O)CC4)nc3cc2C(C)(C)O)n1 (stereo partly drawn) [I-444]
28 | > 200 | COc1cc2nc([C@H]3CC[C@H](CN(C)CCCCNc4cccc5c4C(=O)N(C4CCC(=O)NC4=O)C5=O)CC3)sc2cc1NC(=O)c1cncc(Cl)c1 (stereo partly drawn) [I-480]
29 | 10 to 50 | Cc1cccc(C(=O)Nc2cc3sc([C@H]4CC[C@H](CN5CCN(CCNc6cccc7c6C(=O)N(C6CCC(=O)NC6=O)C7=O)[C@H](C)C5)CC4)nc3cc2C(C)(C)O)n1 (stereo partly drawn) [I-470]
30 | < 10 | CC(C)(O)c1cc2nn([C@H]3CC[C@H](CN4CCN(c5cccc6c(N7CCC(=O)NC7=O)cncc56)CC4)CC3)cc2cc1NC(=O)c1cccc(C(F)(F)F)n1 [I-224]
31 | < 10 | COc1cc2nn([C@H]3C[C@H](CN4CCC(c5c(C)ccc6c5n(C)c(=O)n6C5CCC(=O)NC5=O)CC4)C3)cc2cc1NC(=O)c1cccc(C(F)(F)F)n1 (stereo partly drawn) [I-137]
32 | > 200 | COc1cc2nc([C@H]3CC[C@H](CN4CCC5(CC4)CC(CCNc4cccc6c4C(=O)N(C4CCC(=O)NC4=O)C6=O)C5)CC3)oc2cc1NC(=O)c1cnn2cccnc12 (stereo partly drawn) [I-7]
33 | 10 to 50 | Cn1c(=O)n(C2CCC(=O)NC2=O)c2cccc(C3CCN(C[C@H]4C[C@H](n5cc6cc(NC(=O)c7cccc(C(F)(F)F)n7)c(Cl)cc6n5)C4)CC3)c21 (stereo partly drawn) [I-90]
34 | > 200 | CC(C)Nc1c(C(=O)N[C@H]2CC[C@H](CN3CCN(c4cccc5c4n(C)c(=O)n5C4CCC(=O)NC4=O)CC3)CC2)cnc2c1Oc1ccc(C#N)cc1O2 (stereo partly drawn) [I-410]
35 | > 200 | COc1cc2nn([C@H]3CC[C@H](CN4CCN(c5ccc(N6CCC(=O)NC6=O)cc5)CC4)CC3)cc2cc1NC(=O)c1cccc(C(F)(F)F)n1 [I-312]
36 | < 10 | COc1cc2nn([C@H]3CC[C@H](CN4CCC(c5ccc6c(c5C)n(C)c(=O)n6C5CCC(=O)NC5=O)CC4)CC3)cc2cc1NC(=O)c1cccc(C(F)(F)F)n1 (stereo partly drawn) [I-173]
37 | < 10 | Cn1c(=O)n(C2CCC(=O)NC2=O)c2cccc(C3CCN(C[C@H]4CC[C@H](n5cc6cc(NC(=O)c7cnn8cccnc78)c(F)cc6n5)CC4)CC3)c21 (stereo partly drawn) [I-63]
38 | 100 to 200 | CC(C)(O)c1cc2nn(-c3ccc(CN4CCC5(CCC(Nc6cccc7c6C(=O)N(C6CCC(=O)NC6=O)C7=O)CC5)CC4)cc3)cc2cc1NC(=O)c1cccc(C(F)(F)F)n1 (stereo not drawn) [I-462]
39 | 10 to 50 | COc1cc2nc([C@H]3CC[C@H](CN(C)CCCCNc4cccc5c4C(=O)N(C4CCC(=O)NC4=O)C5=O)CC3)sc2cc1NC(=O)c1cccc(C)n1 (stereo partly drawn) [I-437]
40 | > 200 | COc1cc2nn([C@H]3CC[C@H](CN4CCC(c5cccc6c5n(C)c(=O)n6C5CCC(=O)NC5=O)CC4)CC3)cc2cc1NC(=O)c1cc(Cl)cnn1 (stereo partly drawn) [I-135]
41 | < 10 | C[C@@H]1CN(C[C@H]2CC[C@H](n3cc4cc(NC(=O)c5cccc(C(F)(F)F)n5)c(C(C)(C)O)cc4n3)CC2)CCN1c1cccc2c(N3CCC(=O)NC3=O)cncc12 [I-257]
42 | > 200 | Cn1c(=O)n(C2CCC(=O)NC2=O)c2cccc(N3CC4CC(C3)N4C[C@H]3CC[C@@H](n4cc5cc(NC(=O)c6cccc(C(F)(F)F)n6)ccc5n4)CC3)c21 (single isomer, unassigned) [I-156, N-[2-[4-[[3-[1-(2,6-dioxo-3-piperidyl)-3-methyl-2-oxo-benzimidazol-4-yl]-3,6-diazabicyclo[3.1.1]heptan-6-yl]methyl]cyclohexyl]indazol-5-yl]-6-(trifluoromethyl)pyridine-2-carboxamide]
